Consider 10 compounds from patent US8163758B2 (Parion Sciences, Inc., priority 2006, dated 2012).

The structures appear in SMILES notation. Counter-ions that a name gives are not always drawn.

Data set [1] has as its target T1, epithelial sodium channel (ENaC) (Canis lupus familiaris, UniProt A0A8I3MKE6+A0A8I3Q679+Q95165).
T1 construct: endogenous in cells; host or cells: primary canine bronchial epithelial cells cultured at air-liquid interface
T1 sequence (A0A8I3Q679 1-649): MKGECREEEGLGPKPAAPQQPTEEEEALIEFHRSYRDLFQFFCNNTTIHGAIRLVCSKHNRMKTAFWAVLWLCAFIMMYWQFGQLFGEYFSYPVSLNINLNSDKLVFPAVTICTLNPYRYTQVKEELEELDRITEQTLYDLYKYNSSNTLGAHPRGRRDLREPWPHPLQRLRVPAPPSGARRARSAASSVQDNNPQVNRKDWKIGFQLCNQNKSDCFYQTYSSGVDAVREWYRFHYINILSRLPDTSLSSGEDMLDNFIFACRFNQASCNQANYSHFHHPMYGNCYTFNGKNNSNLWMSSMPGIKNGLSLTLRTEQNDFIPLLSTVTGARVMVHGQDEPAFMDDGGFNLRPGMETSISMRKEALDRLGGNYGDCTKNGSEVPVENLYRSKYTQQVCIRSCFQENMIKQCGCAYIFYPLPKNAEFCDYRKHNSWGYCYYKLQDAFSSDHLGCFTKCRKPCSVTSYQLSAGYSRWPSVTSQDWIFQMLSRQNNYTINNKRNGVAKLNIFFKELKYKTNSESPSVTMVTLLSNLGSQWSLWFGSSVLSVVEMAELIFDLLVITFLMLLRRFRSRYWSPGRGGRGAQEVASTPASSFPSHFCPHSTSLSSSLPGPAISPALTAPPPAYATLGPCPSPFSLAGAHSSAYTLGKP
T1 sequence (Q95165 1-641): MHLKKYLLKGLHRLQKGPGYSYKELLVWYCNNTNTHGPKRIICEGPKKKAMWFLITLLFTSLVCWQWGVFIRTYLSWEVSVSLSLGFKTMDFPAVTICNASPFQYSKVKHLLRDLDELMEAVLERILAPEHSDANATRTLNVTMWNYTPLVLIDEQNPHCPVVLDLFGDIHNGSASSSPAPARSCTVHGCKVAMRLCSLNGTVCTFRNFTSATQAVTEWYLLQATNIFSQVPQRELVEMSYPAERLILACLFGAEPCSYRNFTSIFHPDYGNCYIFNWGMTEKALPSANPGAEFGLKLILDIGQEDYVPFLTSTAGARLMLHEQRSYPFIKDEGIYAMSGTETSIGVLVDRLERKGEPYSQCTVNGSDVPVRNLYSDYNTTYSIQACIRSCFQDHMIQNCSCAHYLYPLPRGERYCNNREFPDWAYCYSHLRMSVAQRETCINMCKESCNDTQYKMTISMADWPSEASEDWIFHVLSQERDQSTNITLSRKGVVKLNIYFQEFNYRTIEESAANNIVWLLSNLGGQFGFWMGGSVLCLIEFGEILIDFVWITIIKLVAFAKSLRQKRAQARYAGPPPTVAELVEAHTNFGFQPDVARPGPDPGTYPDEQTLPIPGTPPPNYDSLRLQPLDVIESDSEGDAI
T1 sequence (A0A8I3MKE6 1-646): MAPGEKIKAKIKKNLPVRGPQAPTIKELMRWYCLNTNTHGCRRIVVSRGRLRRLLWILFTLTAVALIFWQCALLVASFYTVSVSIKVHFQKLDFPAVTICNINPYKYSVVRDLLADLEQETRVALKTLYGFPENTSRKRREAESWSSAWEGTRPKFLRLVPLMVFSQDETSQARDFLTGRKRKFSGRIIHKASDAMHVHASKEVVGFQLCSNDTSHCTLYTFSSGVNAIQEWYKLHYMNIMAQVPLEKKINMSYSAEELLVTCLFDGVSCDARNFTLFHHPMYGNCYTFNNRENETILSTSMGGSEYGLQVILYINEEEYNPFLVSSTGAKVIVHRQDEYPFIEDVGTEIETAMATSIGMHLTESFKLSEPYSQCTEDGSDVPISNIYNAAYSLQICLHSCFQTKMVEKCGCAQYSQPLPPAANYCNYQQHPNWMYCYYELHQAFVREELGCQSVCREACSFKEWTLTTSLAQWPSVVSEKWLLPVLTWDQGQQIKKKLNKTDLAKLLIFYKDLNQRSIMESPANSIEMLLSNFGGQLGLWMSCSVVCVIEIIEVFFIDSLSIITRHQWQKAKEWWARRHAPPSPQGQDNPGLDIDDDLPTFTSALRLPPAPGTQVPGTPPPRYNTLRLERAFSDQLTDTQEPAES
Put plainly: ENaC blocking activity, short circuit current in airway epithelial monolayers in Ussing chambers. It counts as cell-based. As to conditions: canine bronchial epithelia; for ENaC blocking potency relative to Amiloride: fold potency versus amiloride; for IC50: lumenal addition, propranolol 10 μM applied first. How it is done: To assess epithelial sodium channel blocker potency the compounds of the present invention involves the determination of lumenal drug inhibition of airway epithelial sodium currents measured under short circuit current (ISC) using airway epithelial monolayers mounted in Ussing chambers. Cells obtained from freshly excised human, or dog airways are seeded onto porous 0.4 micrometer Transwell® Permeable Supports (Corning Inc. Acton, Mass.), cultured at air-liquid interface (ALI) conditions in hormonally defined media, and assayed for sodium transport activity (ISC) while bathed in Krebs Bicarbonate Ringer (KBR) in Ussing chambers. All test drug additions are to the lumenal bath with approximately half-log dose additions (from 1×10^−11 M to 6×10^−5 M), and the cumulative change in ISC (decreases) recorded. All drugs are prepared in dimethyl sulfoxide as stock solutions at a concentration of approximately 1×10^−2 and stored at −20° C. Six preparations are typically run in parallel; one preparation per run incorporates 552-02 as a positive control. Before the start of the concentration-effect relationship propranolol, a non-selective […], was applied to the lumenal bath (10 μM) to inhibit the beta agonist component of the designer multiple ligand (DML). All data from the voltage clamps are collected via a computer face and analyzed off-line.
Concentration-effect relationships for all compounds are considered and analyzed Using GraphPad Prism version 3.00 for Windows, GraphPad Software, San Diego Calif. USA. IC50 values, […], are calculated and compared to the 552-02 potency as a positive control.

The next data set has as its target T2, beta-adrenergic receptor (Canis lupus familiaris, UniProt P54833).
T2 construct: endogenous in cells; host or cells: primary canine bronchial epithelial cells cultured at air-liquid interface
As to the kind of experiment: Beta agonist activity, anion secretion short circuit current in airway epithelial monolayers in Ussing chambers. It counts as cell-based, canine. As for the experimental part: To assess beta agonist activity the compounds of the present invention involves the determination of lumenal drug addition to promote airway epithelial anion currents measured under short circuit current (ISC) using airway epithelial monolayers mounted in Ussing chambers. Cells obtained from freshly excised human, dog, or sheep airways are seeded onto porous 0.4 micron Transwell® Permeable Supports (Corning), cultured at air-liquid interface (ALI) conditions in hormonally defined media, and assayed for anion secretion (ISC) while bathed in Krebs Bicarbonate Ringer (KBR) in Ussing chambers. All test drug additions are to the lumenal bath with approximately half-log dose additions (from 8×10^−10 M to 6.5×10^−5 M), and the cumulative change in ISC (excitation) recorded. All drugs are prepared in dimethyl sulfoxide as stock solutions at a concentration from 1×10^−1 to 1×10^−2 M and stored at −20° C. […] Before the start of the concentration-effect relationship 552-02 a potent sodium channel blocker was applied to the apical surface (1 μM) to eliminate changes in Isc caused by sodium absorption. All data from the voltage clamps are collected via a computer interface and analyzed off-line.
Concentration-effect relationships for all compounds are considered and analyzed Using GraphPad Prism version 3.00 for Windows, GraphPad Software, San Diego Calif. USA.

T2 sequence (P54833 whole entry): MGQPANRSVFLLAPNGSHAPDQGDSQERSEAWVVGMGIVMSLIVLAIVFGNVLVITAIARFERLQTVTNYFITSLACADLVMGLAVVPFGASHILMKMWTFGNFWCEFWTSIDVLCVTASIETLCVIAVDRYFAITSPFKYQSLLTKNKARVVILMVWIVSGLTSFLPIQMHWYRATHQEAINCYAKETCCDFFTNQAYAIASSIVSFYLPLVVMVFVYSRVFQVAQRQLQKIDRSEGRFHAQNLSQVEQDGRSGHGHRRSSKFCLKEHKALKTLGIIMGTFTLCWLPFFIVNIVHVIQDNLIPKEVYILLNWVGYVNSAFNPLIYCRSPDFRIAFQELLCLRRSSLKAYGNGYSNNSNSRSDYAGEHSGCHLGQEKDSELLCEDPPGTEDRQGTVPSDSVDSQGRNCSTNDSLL

With `CC(CCCc1ccc(CCCCNC(=N)NC(=O)c2nc(Cl)c(N)nc2N)cc1)NC[C@H](O)c1cccc(O)c1` (stereo partly drawn) [Compound 143, 3,5-diamino-6-chloro-N-{N-[4-(4-{4-[(R)-2-hydroxy-2-(3-hydroxyphenyl)ethylamino]pentyl}phenyl)butyl]carbamimidoyl}pyrazine-2-carboxamide], the melting point – broadly, the temperature of the solid-liquid transition – is 82 to 86 °C.
With `N=C(NCCCCc1ccc(CCCCNC[C@H](O)c2ccc(O)c(CO)c2)cc1)NC(=O)c1nc(Cl)c(N)nc1N` [Compound 63, N-(3,5-diamino-6-chloropyrazine-2-carbonyl)-N′-[4-(4-{4-[2-(R)-hydroxy-2-(4-hydroxy-3-hydroxymethylphenyl)ethylamino]butyl}phenyl)butyl]-guanidine], in data set [1], the “ENaC blocking potency relative to Amiloride” value is on record as 154 × Amiloride and the IC50 (usually the concentration that gives 50% inhibition) amounted to 6.5 nM.
The compound `CS(=O)(=O)Nc1cc([C@@H](O)CN(CCCCc2ccc(CCCCNC(=N)NC(=O)c3nc(Cl)c(N)nc3N)cc2)C[C@H](O)c2ccc(O)c(NS(C)(=O)=O)c2)ccc1O` [Compound 42, N-[5-(2-{[4-(4-{4-[N′-(3,5-diamino-6-chloropyrazine-2-carbonyl)-guanidino]butyl}phenyl)butyl]-[2-(R)-hydroxy-2-(4-hydroxy-3-methanesulfonyl-aminophenyl)ethyl]amino}-1-(R)-hydroxyethyl)-2-hydroxyphenyl]methane-sulfonamide] gave a melting point of 148 to 150 °C. Moreover, the IC50 in data set [1] was determined as 21.6 nM.
`CS(=O)(=O)Nc1cc([C@@H](O)CNCCCCc2ccc(CCCCNC(=N)NC(=O)c3nc(Cl)c(N)nc3N)cc2)ccc1O` [Compound 40, N-(5-{2-[4-(4-{4-[N′-(3,5-diamino-6-chloropyrazine-2-carbonyl)-guanidino]butyl}phenyl)butylamino]-1-(R)-hydroxyethyl}-2-hydroxyphenyl)-methanesulfonamide]: the melting point is 108 to 110 °C. In addition, in data set [1], the “ENaC blocking potency relative to Amiloride” value turned out to be 91 × Amiloride and half-maximal inhibition (IC50) required 9.2 nM. Moreover, the EC50 (in general, the concentration that produces a half-maximal response) at beta-adrenergic receptor is 1580 nM.
In the case of `N=C(NCCCCc1ccc(CCCCN(C[C@H](O)c2ccc(O)c(NC=O)c2)C[C@H](O)c2ccc(O)c(NC=O)c2)cc1)NC(=O)c1nc(Cl)c(N)nc1N` [Compound 14, N-{4-[4-(4-{bis-[2-(R)-hydroxy-2-(4-hydroxy-3-formylaminophenyl)-ethyl]amino}butyl)phenyl]butyl}-N′-(3,5-diamino-6-chloropyrazine-2-carbonyl)-guanidine diacetic acid salt], in data set [1], the “ENaC blocking potency relative to Amiloride” value came to 66 × Amiloride and it took 17.7 nM to reach half-maximal inhibition (IC50).
For `N=C(NCCCCc1ccc(CCCCN(C[C@H](O)c2ccc(O)c(CO)c2)C[C@H](O)c2ccc(O)c(CO)c2)cc1)NC(=O)c1nc(Cl)c(N)nc1N` [Compound 67, N-{4-[4-(4-{bis-[2-(R)-hydroxy-2-(4-hydroxy-3-hydroxymethylphenyl)-ethyl]amino}butyl)-phenyl]butyl}-N′-(3,5-diamino-6-chloropyrazine-2-carbonyl)-guanidine] the same measures were 29 × Amiloride and 22.2 nM.
In the case of `CC(=O)Nc1cc([C@@H](O)CNC(C)CCCc2ccc(CCCCNC(=N)NC(=O)c3nc(Cl)c(N)nc3N)cc2)ccc1O` (stereo in doubt) (as salt: lactate) [Compound 175, N—(N-(4-(4-((S)-4-((R)-2-(3-acetamido-4-hydroxyphenyl)-2-hydroxyethylamino)pentyl)phenyl)butyl)carbamimidoyl)-3,5-diamino-6-chloropyrazine-2-carboxamide di-L-lactate], the melting point was 46 to 50 °C (dec.).
In turn, `N=C(NCCCCc1ccc(CCCCN(C[C@H](O)c2ccc(O)c(NC=O)c2)C[C@H](O)c2ccc(O)c(NC=O)c2)cc1)NC(=O)c1nc(Cl)c(N)nc1N` (as salt: salt) [Compound 14, N-{4-[4-(4-{bis-[2-(R)-hydroxy-2-(4-hydroxy-3-formylaminophenyl)-ethyl]amino}butyl)phenyl]butyl}-N′-(3,5-diamino-6-chloropyrazine-2-carbonyl)-guanidine diacetic acid salt] returned a melting point of 128 to 130 °C.
For the compound `C[C@H](CCCc1ccc(CCCCNC(=N)NC(=O)c2nc(Cl)c(N)nc2N)cc1)NC[C@H](O)c1ccc(O)c(NC=O)c1` (as salt: lactate) (hydrate or solvate) [Compound 30, N-(5-{2-[4-(4-{4-[N′-(3,5-diamino-6-chloropyrazine-2-carbonyl)-guanidino]butyl}phenyl)-1-methylbutylamino]-1-(R)-hydroxyethyl}-2-hydroxyphenyl)formamide], the melting point fell in the range of 116 to 119 °C.
As for `N=C(NCCCCc1ccc(OCCNC[C@H](O)c2ccc(O)c(NC=O)c2)cc1)NC(=O)c1nc(Cl)c(N)nc1N` [Compound 19, N-(5-{2-[2-(4-{4-[N-(3,5-diamino-6-chloropyrazine-2-carbonyl)guanidine]butyl}phenoxy)ethylamino]-1-(R)-hydroxylethyl}-2-hydroxyphenyl)-formamide], the melting point is 120 to 124 °C (dec.). Further, in data set [1], the “ENaC blocking potency relative to Amiloride” value is given as 120 × Amiloride and the IC50 amounted to 10 nM.
